According to patent publication US11564919B1, “Small molecule inhibitors for treatment of alpha viruses” (priority 2021, dated 2023):
“Also recorded” adds a separate entry of the source.

Legend:
CHIKV 181/25 [1] = format: cell-based, Chikungunya virus
HeLa cells = conditions: 30 μM, 48 hours
RVFV MP12 = format: cell-based, Rift Valley fever virus
VEEV TC-83 = format: cell-based, Venezuelan Equine Encephalitis Virus
CHIKV-GFP reporter virus = experiment: microbe, parasite or virus in culture; format: cell-based, Chikungunya virus (CHIKV) strain 181/25; conditions: for IC50: Chikungunya virus, HeLa, read-out: IC50 against CHIKV-GFP reporter virus
Zika virus (ZIKV) = format: cell-based
A549 cells = conditions: 30 μM, 48 hours
CHIKV 181/25 [2] = format: cell-based, Chikungunya virus; remark: listed apart in the source

Row | Structure (SMILES) | CHIKV 181/25 viral titer by time of compound addition (CHIKV 181/25 [1]) | reduction of HeLa cell viability (HeLa cells) [%] | viral titer of RVFV (RVFV MP12) | percentage of VEEV TC-83 infected cells (VEEV TC-83) | CHIKV-GFP fluorescence, relative percent infection (CHIKV-GFP reporter virus) | IC50 (CHIKV-GFP reporter virus) [nM] | ZIKV viral titer (Zika virus (ZIKV)) | reduction of A549 cell viability (A549 cells) [%] | VEEV TC-83 infection (VEEV TC-83) | infection of CHIKV 181/25 (CHIKV 181/25 [2])
1 | Cn1c(=N)sc2c3ccccc3ccc21 [Compound IV, 3-methyl-2H,b3H-naphtho[2,1-d][1,3]thiazol-2-imine] | strongest reduction with pre-treatment, with lessened efficacy at each consecutive timepoint; also recorded: consecutively reduced levels of efficacy at later timepoints | 23.8 | significantly reduced titer | reduced the percentage of VEEV TC-83 infected cells | greater inhibition of virus infection in HeLa cells | 2590 | strong reduction | 29 |  | 
2 | O=C(/C=C/c1ccc2c(c1)OCO2)N1CCN(Cc2nc(-c3ccco3)cs2)CC1 [Compound I, (2E)-3-(2H-1,3-benzodioxol-5-yl)-1-(4-{[4-(furan-2-yl)-1,3-thiazol-2-yl]methyl}piperazin-1-yl)prop-2-en-1-one] | relatively similar reduction of viral titer across all timepoints |  | minimal effectiveness |  | more effective in A549 cells | 10900 | no obvious reduction |  | the only compound reducing VEEV TC-83 infection | 
3 | Sc1nnc2c(n1)[nH]c1ccccc12 [Compound III, 5H-[1,2,4]Triazino[5,6-b]indole-3-thiol] | relatively similar reduction of viral titer across all timepoints |  |  | reduced the percentage of VEEV TC-83 infected cells |  | 2820 | some minimal effect |  |  | didn't reduce infection
